Test results as given in US20060069132A1, “Azolecarboxamide herbicides” (priority 2004, published 2006).

What was measured:
velvetleaf [1] = experiment: Test A pre-/postemergence herbicide test; format: in vivo, Abutilon theophrasti
Procedure, shortened: (§1)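 Pre: seeded sandy loam, directed soil spray, compound in non-phytotoxic solvent + surfactant. Post: 1–2-leaf plants (2–10 cm), sprayed to runoff. Greenhouse ~10 d; visual injury vs untreated, 0–100 scale.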

barnyardgrass [2] = experiment: Test A pre-/postemergence herbicide test; format: in vivo, Echinochloa crus-galli
Procedure, shortened: as §1

cocklebur = experiment: Test C pre-/postemergence herbicide test; format: in vivo, Xanthium strumarium
Procedure, shortened: (§2)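 Visual injury scores run from 0 (no effect) to 100 (complete control), assessed relative to untreated controls 12 to 14 days after treatment in the greenhouse. Chemicals were formulated in a non-phytotoxic solvent mixture with surfactant and applied to soil after planting or to emerged plants at the 1- to 4-leaf stage.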

velvetleaf [3] = experiment: Test C pre-/postemergence herbicide test; format: in vivo, Abutilon theophrasti
Procedure, shortened: as §2

yellow nutsedge = experiment: Test C pre-/postemergence herbicide test; format: in vivo, Cyperus esculentus
Procedure, shortened: as §2

ducksalad = experiment: Test C flooded paddy test; format: in vivo, Heteranthera limosa
large crabgrass = experiment: Test C pre-/postemergence herbicide test; format: in vivo, Digitaria sanguinalis
Procedure, shortened: as §2

corn = experiment: Test C pre-/postemergence herbicide test; format: in vivo, Zea mays
Procedure, shortened: as §2

eastern black nightshade = experiment: Test C pre-/postemergence herbicide test; format: in vivo, Solanum ptycanthum; settings: preemergence
Procedure, shortened: as §2

barnyardgrass [4] = experiment: Test C flooded paddy test; format: in vivo, Echinochloa crus-galli
Procedure, shortened: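 Scoring by eye, 12–14 days post-treatment, greenhouse-held plants vs. controls; 0 no effect, 100 complete control. Sprayed at 1–4 leaves (2–18 cm); paddy barnyardgrass at 2 leaves, flooded.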

redroot pigweed = experiment: Test A pre-/postemergence herbicide test; format: in vivo, Amaranthus retroflexus
Procedure, shortened: as §1

common ragweed = experiment: Test C pre-/postemergence herbicide test; format: in vivo, Ambrosia elatior; parameters: key to Plant response rating, Ragweed: 0 = no effect, 100 = complete control
Procedure, shortened: as §2

rice = experiment: Test C flooded paddy test; format: in vivo, Oryza sativa
Procedure, shortened: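 Plants were grown to the 1- to 4-leaf stage (2–18 cm) and then treated postemergence, or grown to the 2-leaf stage for the flooded paddy test. They were held in a greenhouse for 12 to 14 days and then scored by eye against controls, where 0 is no effect and 100 is complete control.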

[5] = Postemergence, 500 g ai/ha, 0 to 100 scale, 0 no effect, 100 complete control
[6] = Postemergence, 2000 g ai/ha, 0 to 100 scale, 0 no effect, 100 complete control
[7] = Preemergence, 2000 g ai/ha, visual rating, 0 to 100 scale (0 no effect, 100 complete control)
[8] = preemergence, 500 g ai/ha, visual injury, 0 to 100 scale (0 no effect, 100 complete control)
[9] = 125 g ai/ha, scale 0 (no effect) to 100 (complete control), visual, 12 to 14 days, preemergence
[10] = 250 g ai/ha, scale 0 to 100 (0 no effect, 100 complete control), visual, 12 to 14 days, preemergence
[11] = Postemergence, 250 g ai/ha, scale 0 to 100, 0 no effect, 100 complete control
[12] = postemergence, 125 g ai/ha, scale 0 to 100
[13] = postemergence, 62 g ai/ha, scale 0 to 100
[14] = 62 g ai/ha, scale 0 to 100 (0 no effect, 100 complete control)
[15] = 125 g ai/ha, scale 0 to 100 (0 no effect, 100 complete control)
[16] = 250 g ai/ha, scale of 0 to 100, 0 is no effect, 100 is complete control
[17] = 500 g ai/ha, visual rating after 12 to 14 days, scale 0 to 100 (0 no effect, 100 complete control)

SMILES: CCn1nc(C(C)(C)C)cc1C(=O)Nc1cccc(C#N)c1 [Compound 139]
- Velvetleaf plant response rating (velvetleaf [1]; [5]): 25
- Plant response rating, Velvetleaf (velvetleaf [1]; [6]): 40
- Velvetleaf plant response rating (velvetleaf [1]; [7]): 80
- Velvetleaf plant response rating (velvetleaf [1]; [8]): 50
- Barnyardgrass plant response rating (barnyardgrass [2]; [5]): 35
- Plant response rating, Barnyardgrass (barnyardgrass [2]; [6]): 60
- Barnyardgrass plant response rating (barnyardgrass [2]; Preemergence, 500 g ai/ha, visual rating, 0 to 100 scale (0 no effect, 100 complete control)): 40
- Barnyardgrass plant response rating (barnyardgrass [2]; [7]): 60
- Plant response rating (0 = no effect, 100 = complete control), Cocklebur (cocklebur; 62 g ai/ha, preemergence): 0
- Plant response rating, Cocklebur (cocklebur; [9]): 0
- Plant response rating, Cocklebur (cocklebur; [10]): 0
- Plant response rating, Cocklebur (cocklebur; [11]): 10
- Plant response rating, Cocklebur (cocklebur; [12]): 10
- Plant response rating, Cocklebur (cocklebur; postemergence, 31 g ai/ha, scale 0 to 100): 5
- Plant response rating, Cocklebur (cocklebur; [13]): 5
- Plant response rating, Velvetleaf (velvetleaf [3]; [9]): 30
- Plant response rating, Velvetleaf (velvetleaf [3]; [11]): 50
- Plant response rating, Velvetleaf (velvetleaf [3]; [12]): 50
- Plant response rating, Velvetleaf (velvetleaf [3]; [13]): 30
- Plant response rating, Nutsedge, Yellow (yellow nutsedge; 31 g ai/ha, scale 0 to 100, last section of Table C, preemergence): 0
- Plant response rating (0 = no effect, 100 = complete control), Nutsedge, Yellow (yellow nutsedge; 62 g ai/ha, preemergence): 0
- Plant response rating, Nutsedge, Yellow (yellow nutsedge; [9]): 0
- Plant response rating, Nutsedge, Yellow (yellow nutsedge; [11]): 0
- Plant response rating, Nutsedge, Yellow (yellow nutsedge; [12]): 0
- Plant response rating, Nutsedge, Yellow (yellow nutsedge; [13]): 0
- Ducksalad plant response rating (ducksalad; [14]): 0
- Ducksalad plant response rating (ducksalad; [15]): 70
- Ducksalad plant response rating (ducksalad; [16]): 85
- Plant response rating, Ducksalad (ducksalad; [17]): 90
- Plant response rating (0 = no effect, 100 = complete control), Crabgrass, Large (large crabgrass; 62 g ai/ha, preemergence): 40
- Plant response rating, Crabgrass, Large (large crabgrass; [9]): 100
- Plant response rating, Crabgrass, Large (large crabgrass; [10]): 100
- Plant response rating, Crabgrass, Large (large crabgrass; [11]): 0
- Plant response rating, Crabgrass, Large (large crabgrass; [12]): 0
- Plant response rating, Crabgrass, Large (large crabgrass; [13]): 0
- Plant response rating (0 = no effect, 100 = complete control), Corn (corn; 62 g ai/ha, preemergence): 0
- Plant response rating, Corn (corn; [9]): 0
- Plant response rating, Corn (corn; [10]): 15
- Plant response rating, Corn (corn; [11]): 10
- Plant response rating, Corn (corn; [12]): 10
- Plant response rating, Corn (corn; [13]): 0
- Plant response rating (0 = no effect, 100 = complete control), Nightshade (eastern black nightshade; 62 g ai/ha): 95
- Plant response rating, Nightshade (eastern black nightshade; 125 g ai/ha, scale 0 (no effect) to 100 (complete control), visual, 12 to 14 days): 100
- Barnyardgrass plant response rating (barnyardgrass [4]; [14]): 15
- Barnyardgrass plant response rating (barnyardgrass [4]; 125 g ai/ha, scale of 0 to 100, 0 is no effect, 100 is complete control): 40
- Barnyardgrass plant response rating (barnyardgrass [4]; [16]): 55
- Plant response rating, Barnyardgrass (barnyardgrass [4]; [17]): 65
- Pigweed plant response rating (redroot pigweed; [5]): 75
- Plant response rating, Pigweed (redroot pigweed; [6]): 100
- Pigweed plant response rating (redroot pigweed; [7]): 100
- Pigweed plant response rating (redroot pigweed; [8]): 100
- Plant response rating (0 = no effect, 100 = complete control), Ragweed (common ragweed; 62 g ai/ha, preemergence): 50
- Plant response rating, Ragweed (common ragweed; [9]): 50
- Plant response rating, Ragweed (common ragweed; [11]): 45
- Plant response rating, Ragweed (common ragweed; [12]): 45
- Plant response rating, Ragweed (common ragweed; [13]): 0
- Rice plant response rating (rice; [14]): 0
- Rice plant response rating (rice; [15]): 35
- Rice plant response rating (rice; [16]): 45
- Plant response rating, Rice (rice; [17]): 60
